Columns and labels:
Type in all cases: cell-based, human
NFκB-dependent promoter = experiment: Transient transfection of pNFkB-Luc into HT1080 p21-9 cells, firefly luciferase; conditions: different concentrations of IPTG
Source text: To determine if IPTG-inducible p21 expression in HT1080 p21-9 cells stimulates the transcriptional activity of NFκB, we have used transient transfection assays to investigate the effect of p21 induction on luciferase expression from the plasmid pNFkB-Luc, commercially available from Stratagene. This plasmid expresses firefly luciferase from an artificial promoter containing five tandemly repeated NFκB consensus sequences. We have also generated by PCR a version of the same promoter that contains only one NFκB consensus sequence using primers identified as SEQ ID Nos. 80 and 83. The sequences of these two promoters are identified as SEQ ID NOs. 78 and 79.
The ability of p21 to induce these promoters was tested by transient transfection assays, as described in Example 8, using different concentrations of IPTG that induce p21 to different levels.
This plasmid is referred to below as IKK. To determine the effect of p300/CBP inhibition on luciferase expression from pNFkB-Luc, the latter plasmid was similarly mixed in another assay with a vector expressing a truncated gene for adenoviral E1A protein with a C-terminal deletion {ΔCR2 (120-140)}. […] The E1AΔCR2 and E1AΔN/ΔCR2 constructs were provided by Dr. V. Ogryzko (NICHHD, NIH). […] The firefly luciferase activity was measured and normalized to Renilla luciferase activity measured (in the absence of IPTG) in each transfected sample.

HS 15.T cells = experiment: Mitogenic activity assay, 3H-thymidine incorporation; conditions: 60 hr in media then 24 hrs 3H-thymidine
Protocol: To verify the induction of secreted mitogenic and anti-apoptotic factors by p21, conditioned media from IPTG-treated HT1080 p21-9 cells were tested to investigate whether they would have an effect on cell growth and apoptosis. In these experiments, conditioned media were prepared by plating 10^6 HT1080 p21-9 cells per 15 cm plate in the presence of DMEM/10% FCS. The next day, IPTG was added to a final concentration of 50 μM, and this media was replaced three days later with DMEM supplemented with 0.5% FCS and 50 μM IPTG. Two days later (days 3-5 of IPTG treatment), this conditioned media was collected and stored at 4° C. up to 15 days before use. Control media were prepared by adding IPTG-free DMEM/0.5% FCS to untreated cells grown to the same density as IPTG-treated cells and collecting the media two days thereafter.
The slow-growing human fibrosarcoma cell line HS 15.T was used to detect mitogenic activity in these conditioned media. For mitogenic activity assays, both types of conditioned media, as well as fresh media and 1:1 mixtures of conditioned media and fresh media were used to test mitogenic activity. In these experiments, the conditioned media were supplemented with 1% or 2% FCS. […] Cells were then collected and their ^3H-thymidine incorporation determined as described by Mosca et al. (1992, Mol. Cell. Biol. 12: 4375-4383).

HT1080 p21-9 cells = experiment: Cell cycle distribution by FACS analysis of DNA content; conditions: 24 hrs of IPTG treatment
Protocol: Cell cycle distribution was determined using FACS analysis of DNA content after staining with propidium iodide as described by Jordan et al. (1996, Cancer Res. 56: 816-825) using Becton Dickinson FACSort. Cell cycle distribution stabilized after 24 hrs of IPTG treatment. By this time, 42-43% of IPTG-treated cells were arrested in G1 and G2, respectively, and about 15% of the cells were arrested with S-phase DNA content. IPTG-treated HT1080 p21-9 cells also developed morphological senescence markers (enlarged and flattened morphology and increased granularity), as well as SA-β-gal activity (Chang et al., 1999, ibid.).

HT1080 p16-5 cells = experiment: as above; conditions: 50 μM IPTG, 24 hrs
Protocol: (§1) This cell population was subcloned, and 20 clonal cell lines were isolated and tested for IPTG-inducible growth inhibition. Cell line showing the strongest growth inhibition was designated HT1080 p16-5. This cell line has been deposited on Jan. 31, 2002 in the American Type Culture Collection (A.T.C.C.), Manassas, Va. and given Accession Number PTA-4020. […] Fractions of cells in different phases of the cell cycle were determined using FACS analysis of DNA content after staining with propidium iodide as described by Jordan et al. (1996, Cancer Res. 56:816-825) using Becton Dickinson FACSort. Cell cycle distribution stabilized after 24 hrs of IPTG treatment, by which time 93% of IPTG-treated cells were arrested in G1. Such G1 arrest is expected from the inhibition of CDK4/6 by p16.

HT1080 p27-2 cells = experiment: as above; conditions: 50 μM IPTG, 24 hrs
Protocol: as §1
Similarly, the G418-selected population of LNp27RO2 transduced cells was subcloned, and 38 clonal cell lines were isolated and tested for IPTG-inducible growth inhibition. Cell line showing the strongest growth inhibition was designated HT1080 p27-2. This cell line has been deposited on Jan. 31, 2002 in the American Type Culture Collection (A.T.C .C.), Manassas, Va. and given Accession Number PTA-4021. […] Cell cycle distribution stabilized after 24 hrs of IPTG treatment, by which time 89% of IPTG-treated cells were arrested in G1. Such G1 arrest is expected from the inhibition of CDK4/6 by p16.

CC(C)S[C@@H]1O[C@H](CO)[C@H](O)[C@H](O)[C@H]1O [IPTG, isopropyl-β-thiogalactoside]
induction of promoters containing five or one NFκB site (NFκB-dependent promoter): dose-dependent induction | 3H-thymidine incorporation (HS 15.T cells): no effect | cells arrested in G1 and G2, respectively (HT1080 p21-9 cells): 42-43% | cells arrested with S-phase DNA content (HT1080 p21-9 cells): about 15% | cells arrested in G1 (HT1080 p16-5 cells): 93% | cells arrested in G1 (HT1080 p27-2 cells): 89%

Source: patent publication US20030157704A1, “Reagents and methods for identifying and modulating expression of genes regulated by CDK inhibitors” (priority 2001, published 2003)
